The source of these data is US8969516B2, “Method of hydrolysis of peptide bond” (priority 2006, dated 2015).

The data set can be described thus: MALDI-TOF screening of Ni^2+ dependent hydrolysis in a combinatorial peptide library. It is filed as physicochemical. Conditions: CH3CO-Gly-Ala-Ser-X-His-Z-Lys-Phe-Leu-NH2 library, Ni^2+ 2 mM, pH 8.2, 10 mM Tris, score=24/tm. The essentials:
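MALDI-TOF spectra taken at 2, 4, 6 and 8 h tracked the appearance of Ser/Thr-X-His-Z-Lys-Phe-Leu-NH2 cleavage products and the fall in substrate signals. Reactions: 1 mM peptide mixture, 2 mM Ni^2+, 10 mM Tris pH 8.2, at 37 or 45 °C; X/Z substitutions ranked by summed scores.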

For the substance Ac-GASTHLKFL-NH2 [STHL], the “hydrolysis score from MALDI-TOF screening” value (“hydrolysis score” for short) by setting is: (37° C.) 4 (a score of 4 for detection at 6 hours); (45° C.) 6 (a score of 6 for detection at 4 hours).

Regarding Ac-GASTHMKFL-NH2 [STHM], the “hydrolysis score” value is recorded as 0 (a score of 0 if no trace of the product of hydrolysis was seen after 8 hours of incubation) (37° C.) and 0 (a score of 0 if no trace of the product of hydrolysis was seen after 8 hours of incubation) (45° C.).

As to Ac-GASTHNKFL-NH2 [STHN], the “hydrolysis score” value is reported as 0 (a score of 0 if no trace of the product of hydrolysis was seen after 8 hours of incubation) (37° C.) and 0 (a score of 0 if no trace of the product of hydrolysis was seen after 8 hours of incubation) (45° C.).

Turning to Ac-GASTHPKFL-NH2 [STHP], the “hydrolysis score” value is reported as 0 (a score of 0 if no trace of the product of hydrolysis was seen after 8 hours of incubation) (37° C.) and 0 (a score of 0 if no trace of the product of hydrolysis was seen after 8 hours of incubation) (45° C.).

For Ac-GASTHQKFL-NH2 [STHQ], the “hydrolysis score” value by setting is: (37° C.) 0 (a score of 0 if no trace of the product of hydrolysis was seen after 8 hours of incubation); (45° C.) 0 (a score of 0 if no trace of the product of hydrolysis was seen after 8 hours of incubation).

For Ac-GASTHRKFL-NH2 [STHR], the “hydrolysis score” value is, setting by setting: (37° C.) 3 (a score of 3 for detection at 8 hours); (45° C.) 6 (a score of 6 for detection at 4 hours).

With Ac-GASTHSKFL-NH2 [STHS], the “hydrolysis score” value is, setting by setting: (37° C.) 0 (a score of 0 if no trace of the product of hydrolysis was seen after 8 hours of incubation); (45° C.) 0 (a score of 0 if no trace of the product of hydrolysis was seen after 8 hours of incubation).

As to Ac-GASTHTKFL-NH2 [STHT], the “hydrolysis score” value (37° C.) was 0 (a score of 0 if no trace of the product of hydrolysis was seen after 8 hours of incubation) and the “hydrolysis score” value (45° C.) was 0 (a score of 0 if no trace of the product of hydrolysis was seen after 8 hours of incubation).

Take Ac-GASTHVKFL-NH2 [STHV]: the “hydrolysis score” value is, setting by setting: (37° C.) 0 (a score of 0 if no trace of the product of hydrolysis was seen after 8 hours of incubation); (45° C.) 6 (a score of 6 for detection at 4 hours).

With Ac-GASTHWKFL-NH2 [STHW], the “hydrolysis score” value (37° C.) is reported as 4 (a score of 4 for detection at 6 hours) and the “hydrolysis score” value (45° C.) is on record as 6 (a score of 6 for detection at 4 hours).

For Ac-GASTHYKFL-NH2 [STHY], the “hydrolysis score” value (37° C.) is given as 0 (a score of 0 if no trace of the product of hydrolysis was seen after 8 hours of incubation) and the “hydrolysis score” value (45° C.) is 3 (a score of 3 for detection at 8 hours).

For the substance Ac-GASVHAKFL-NH2 [SVHA], the “hydrolysis score” value runs as follows: (37° C.) 0 (a score of 0 if no trace of the product of hydrolysis was seen after 8 hours of incubation); (45° C.) 0 (a score of 0 if no trace of the product of hydrolysis was seen after 8 hours of incubation).

Turning to Ac-GASVHDKFL-NH2 [SVHD], the “hydrolysis score” value is on record as 0 (a score of 0 if no trace of the product of hydrolysis was seen after 8 hours of incubation) (37° C.) and 0 (a score of 0 if no trace of the product of hydrolysis was seen after 8 hours of incubation) (45° C.).

For the substance Ac-GASVHEKFL-NH2 [SVHE], the “hydrolysis score” value reads like this: (37° C.) 0 (a score of 0 if no trace of the product of hydrolysis was seen after 8 hours of incubation); (45° C.) 0 (a score of 0 if no trace of the product of hydrolysis was seen after 8 hours of incubation).

In the case of Ac-GASVHFKFL-NH2 [SVHF], the “hydrolysis score” value is recorded as 0 (a score of 0 if no trace of the product of hydrolysis was seen after 8 hours of incubation) (37° C.) and 3 (a score of 3 for detection at 8 hours) (45° C.).

Take Ac-GASVHGKFL-NH2 [SVHG]: the “hydrolysis score” value reads like this: (37° C.) 0 (a score of 0 if no trace of the product of hydrolysis was seen after 8 hours of incubation); (45° C.) 0 (a score of 0 if no trace of the product of hydrolysis was seen after 8 hours of incubation).

Ac-GASVHHKFL-NH2 [SVHH]: the “hydrolysis score” value by setting is: (37° C.) 3 (a score of 3 for detection at 8 hours); (45° C.) 3 (a score of 3 for detection at 8 hours).

Consider Ac-GASVHIKFL-NH2 [SVHI], for which the “hydrolysis score” value reads like this: (37° C.) 3 (a score of 3 for detection at 8 hours); (45° C.) 3 (a score of 3 for detection at 8 hours).

In the case of Ac-GASVHKKFL-NH2 [SVHK], the “hydrolysis score” value (37° C.) was 3 (a score of 3 for detection at 8 hours) and the “hydrolysis score” value (45° C.) was 4 (a score of 4 for detection at 6 hours).

As to Ac-GASVHLKFL-NH2 [SVHL], the “hydrolysis score” value is on record as 3 (a score of 3 for detection at 8 hours) (37° C.) and 3 (a score of 3 for detection at 8 hours) (45° C.).

In the case of Ac-GASVHMKFL-NH2 [SVHM], the “hydrolysis score” value by setting is: (37° C.) 0 (a score of 0 if no trace of the product of hydrolysis was seen after 8 hours of incubation); (45° C.) 0 (a score of 0 if no trace of the product of hydrolysis was seen after 8 hours of incubation).

Regarding Ac-GASVHNKFL-NH2 [SVHN], the “hydrolysis score” value (37° C.) is 0 (a score of 0 if no trace of the product of hydrolysis was seen after 8 hours of incubation) and the “hydrolysis score” value (45° C.) was 0 (a score of 0 if no trace of the product of hydrolysis was seen after 8 hours of incubation).

Take Ac-GASVHPKFL-NH2 [SVHP]: the “hydrolysis score” value was 0 (a score of 0 if no trace of the product of hydrolysis was seen after 8 hours of incubation) (37° C.) and 0 (a score of 0 if no trace of the product of hydrolysis was seen after 8 hours of incubation) (45° C.).

As for Ac-GASVHQKFL-NH2 [SVHQ], the “hydrolysis score” value by setting is: (37° C.) 0 (a score of 0 if no trace of the product of hydrolysis was seen after 8 hours of incubation); (45° C.) 0 (a score of 0 if no trace of the product of hydrolysis was seen after 8 hours of incubation).

For the substance Ac-GASVHRKFL-NH2 [SVHR], the “hydrolysis score” value (37° C.) is on record as 3 (a score of 3 for detection at 8 hours) and the “hydrolysis score” value (45° C.) is reported as 3 (a score of 3 for detection at 8 hours).

Take Ac-GASVHSKFL-NH2 [SVHS]: the “hydrolysis score” value reads like this: (37° C.) 0 (a score of 0 if no trace of the product of hydrolysis was seen after 8 hours of incubation); (45° C.) 0 (a score of 0 if no trace of the product of hydrolysis was seen after 8 hours of incubation).

Turning to Ac-GASVHTKFL-NH2 [SVHT], the “hydrolysis score” value is, setting by setting: (37° C.) 0 (a score of 0 if no trace of the product of hydrolysis was seen after 8 hours of incubation); (45° C.) 0 (a score of 0 if no trace of the product of hydrolysis was seen after 8 hours of incubation).

With Ac-GASVHVKFL-NH2 [SVHV], the “hydrolysis score” value is on record as 0 (a score of 0 if no trace of the product of hydrolysis was seen after 8 hours of incubation) (37° C.) and 3 (a score of 3 for detection at 8 hours) (45° C.).

Consider Ac-GASVHWKFL-NH2 [SVHW], for which the “hydrolysis score” value reads like this: (37° C.) 4 (a score of 4 for detection at 6 hours); (45° C.) 4 (a score of 4 for detection at 6 hours).

Take Ac-GASVHYKFL-NH2 [SVHY]: the “hydrolysis score” value is, setting by setting: (37° C.) 0 (a score of 0 if no trace of the product of hydrolysis was seen after 8 hours of incubation); (45° C.) 3 (a score of 3 for detection at 8 hours).

Ac-GASWHAKFL-NH2 [SWHA]: the “hydrolysis score” value runs as follows: (37° C.) 0 (a score of 0 if no trace of the product of hydrolysis was seen after 8 hours of incubation); (45° C.) 3 (a score of 3 for detection at 8 hours).

Regarding Ac-GASWHDKFL-NH2 [SWHD], the “hydrolysis score” value runs as follows: (37° C.) 0 (a score of 0 if no trace of the product of hydrolysis was seen after 8 hours of incubation); (45° C.) 0 (a score of 0 if no trace of the product of hydrolysis was seen after 8 hours of incubation).

For the substance Ac-GASWHEKFL-NH2 [SWHE], the “hydrolysis score” value runs as follows: (37° C.) 0 (a score of 0 if no trace of the product of hydrolysis was seen after 8 hours of incubation); (45° C.) 0 (a score of 0 if no trace of the product of hydrolysis was seen after 8 hours of incubation).

Take Ac-GASWHFKFL-NH2 [SWHF]: the “hydrolysis score” value was 3 (a score of 3 for detection at 8 hours) (37° C.) and 4 (a score of 4 for detection at 6 hours) (45° C.).

Regarding Ac-GASWHGKFL-NH2 [SWHG], the “hydrolysis score” value (37° C.) is listed as 0 (a score of 0 if no trace of the product of hydrolysis was seen after 8 hours of incubation) and the “hydrolysis score” value (45° C.) is 3 (a score of 3 for detection at 8 hours).

Take Ac-GASWHHKFL-NH2 [SWHH]: the “hydrolysis score” value runs as follows: (37° C.) 4 (a score of 4 for detection at 6 hours); (45° C.) 3 (a score of 3 for detection at 8 hours).

In the case of Ac-GASWHIKFL-NH2 [SWHI], the “hydrolysis score” value is, setting by setting: (37° C.) 6 (a score of 6 for detection at 4 hours); (45° C.) 12 (a score of 12, if it was seen to be partially hydrolysed at 2 hours).
